Earlier results in article PMC8528301 (PLoS ONE, 2021).
Where two headings read alike, the source gives them in different places.

Experiments:
CYP3A4 [1] = system: CYP3A4; design: method as in PMID 19282395; settings: cited from earlier work
CYP3A4 [2] = settings: in vitro metabolic studies; humans; cited from earlier work
[3] = oral dosing; monkeys; cited from earlier work
[4] = bile duct cannulated rats; no reference given; cited from earlier work
[5] = cited from earlier work; for Tmax: oral dosing

## Cc1nc(Nc2ncc(C(=O)Nc3c(C)cccc3Cl)s2)cc(N2CCN(CCO)CC2)n1 [dasatinib]
CYP3A4 [1]
  K(inact), CYP3A4 mechanism-based inactivation: 0.034 min (-1)
CYP3A4 [1]; read-out: K(I), CYP3A4 mechanism-based inactivation
  KI (inactivation): 6.3 µM
CYP3A4 [2]
  share of dasatinib metabolized by CYP3A4: 98%
[3]
  Tmax: 36 min
[4]
  oral bioavailability: 27%
  percentage of unchanged drug in the gastrointestinal tract: 33%
[5]; mice
  bioavailability: 17%
[5]; one study, species not given
  bioavailability: 45–51%
[5]; Mdr1a wild-type and KO mice
  Tmax: 15 min
[5]; nude female nude mice
  Tmax: 120 min
